Columns and labels:
[1] = system: healthy adult male volunteers; experiment: Single dose study in humans, pharmacodynamic parameters after breakfast; format: in vivo, human
Method: Single dose study in humans. A single oral dose of 2 mg, 5 mg, 10 mg, 20 mg, 40 mg, 80 mg, and 160 mg of mizagliflozin were administered to healthy adult male volunteers by a placebo-controlled, randomized, double-blind method. The single dose was administered orally immediately before breakfast with approximately 200 mL of water after fasting for at least 10 hours. Pharmacodynamic effect parameters (blood glucose level, insulin, GLP-1, and gastric inhibitory polypeptide (GIP)) were measured. Concentrations at each time point were measured, and summary statistics and coefficient variation (CV) were calculated for AUC0-t; t was up to 6 hours postdose. The time points were: before administration and 0.5, 1, 1.5, 2, 3, 4, 5, and 6 hours after administration. Blood glucose level and insulin were measured to evaluate in an exploratory manner the inhibitory effect on postprandial hyperglycemia. GLP-1 and GIP were measured to evaluate in an exploratory manner the incretin secretory action.

[2] = system: STZ-induced diabetic rats; experiment: Oral mixed-carbohydrate tolerance test (OMCTT) in STZ-induced diabetic rats (Example 9); format: in vivo, rat; details: for Plasma glucose 0 hr: before dosing; for Plasma glucose 0 hr / Plasma glucose 0.5 hr / Plasma glucose 1 hr / Plasma glucose 2 hr / Plasma glucose 3 hr / ΔAUC (0-1) / ΔAUC (0-1) (% of Control): mixed-carbohydrate load, mean ± S.E.M.
Method: Study in diabetic rats with mixed carbohydrates. Diabetic rats, induced by intravenous injection of streptozotocin (STZ; 40 mg/kg), were used to determining plasma glucose concentration (PG) 1 hr after oral mixed-carbohydrate tolerance test (OMCTT). […] Blood was collected via the caudal artery immediately before dosing and 0.5, 1, 2, and 3 hr after dosing. The glucose concentration measurement in plasma used Glucose CII-Test Wako kit (Wako Pure Chemicals Industries, Ltd., Osaka, Japan). The variables used for efficacy assessment were the measurement values of the plasma glucose concentration and the area under the curve for plasma glucose concentration through 1 hr after loading (ΔAUC0-1 hr). The ΔAUC0-1 hr for plasma glucose was calculated based on the trapezoid method using the change of plasma glucose concentrations from pre-value (0 hr).

[3] = Excretion after oral dosing in non-human primates; format: in vivo
Excerpt: Accordingly, the SGLT1 inhibitor compounds of Formula I or Formula II are locally acting in the gut, and have poor systemic exposure. […] Systemic exposure (e.g., Cmax) can be measured by methods well known in the art, including liquid chromatography mass spectrometry.

[4] = single oral dose 2 mg before breakfast
[5] = single oral dose 5 mg before breakfast
[6] = single oral dose 10 mg before breakfast
[7] = single oral dose 20 mg before breakfast
[8] = single oral dose 40 mg before breakfast
[9] = single oral dose 80 mg before breakfast
[10] = single oral dose 160 mg before breakfast

excreted in the feces [3]: > 82 % of orally administered dose
Compound: Cc1cc(OCCCNCC(C)(C)C(N)=O)ccc1Cc1c(O[C@@H]2O[C@H](CO)[C@@H](O)[C@H](O)[C@H]2O)n[nH]c1C(C)C [mizagliflozin, 3-(3-{4-[3-(β-D-glucopyranosyloxy)-5-isopropyl-1H-pyrazol-4-ylmethyl-]-3-methylphenoxy}propylamino)-2,2-dimethylpropionamide]
AUC 0-6 GIP [1, 4]: 818.5 pg·h/mL
AUC 0-6 GLP-1 (active) [1, 4]: 23.7 pmol·h/L
AUC 0-6 Insulin [1, 4]: 123.2 uU*h/ml
AUC 0-6 glucose [1, 4]: 628.3 mg·h/dL
GIP (peak) [1, 4]: 183.6 pg/mL
GLP-1 (active) (peak) [1, 4]: 6.4 pmol/L
Glucose (peak) [1, 4]: 128.7 mg/dL
Insulin (peak) [1, 4]: 40.38 uU/ml
Time (h) to peak, GIP [1, 4]: 4 h
Time (h) to peak, GLP-1 (active) [1, 4]: 0.5 h
Time (h) to peak, glucose [1, 4]: 1.5 h
Time (h) to peak, insulin [1, 4]: 1.5 h
AUC 0-6 GIP [1, 5]: 856.9 pg·h/mL
AUC 0-6 GLP-1 (active) [1, 5]: 28.5 pmol·h/L
AUC 0-6 Insulin [1, 5]: 140.7 uU*h/ml
AUC 0-6 glucose [1, 5]: 631.3 mg·h/dL
GIP (peak) [1, 5]: 194.5 pg/mL
GLP-1 (active) (peak) [1, 5]: 6.1 pmol/L
Glucose (peak) [1, 5]: 130.3 mg/dL
Insulin (peak) [1, 5]: 47.1 uU/ml
Time (h) to peak, GIP [1, 5]: 3 h
Time (h) to peak, GLP-1 (active) [1, 5]: 0.5 h
Time (h) to peak, glucose [1, 5]: 1 h
Time (h) to peak, insulin [1, 5]: 1.5 h
AUC 0-6 GIP [1, 6]: 945.7 pg·h/mL
AUC 0-6 GLP-1 (active) [1, 6]: 41.5 pmol·h/L
AUC 0-6 Insulin [1, 6]: 120.4 uU*h/ml
AUC 0-6 glucose [1, 6]: 661.9 mg·h/dL
GIP (peak) [1, 6]: 252.3 pg/mL
GLP-1 (active) (peak) [1, 6]: 8.7 pmol/L
Glucose (peak) [1, 6]: 143.8 mg/dL
Insulin (peak) [1, 6]: 39 uU/ml
Time (h) to peak, GIP [1, 6]: 4 h
Time (h) to peak, GLP-1 (active) [1, 6]: 0.5 h
Time (h) to peak, glucose [1, 6]: 1.5 h
Time (h) to peak, insulin [1, 6]: 2 h
AUC 0-6 GIP [1, 7]: 783.9 pg·h/mL
AUC 0-6 GLP-1 (active) [1, 7]: 55.8 pmol·h/L
AUC 0-6 Insulin [1, 7]: 89.7 uU*h/ml
AUC 0-6 glucose [1, 7]: 612.9 mg·h/dL
GIP (peak) [1, 7]: 216.7 pg/mL
GLP-1 (active) (peak) [1, 7]: 11.6 pmol/L
Glucose (peak) [1, 7]: 113.7 mg/dL
Insulin (peak) [1, 7]: 25.9 uU/ml
Time (h) to peak, GIP [1, 7]: 4 h
Time (h) to peak, GLP-1 (active) [1, 7]: 1.5 h
Time (h) to peak, glucose [1, 7]: 2 h
Time (h) to peak, insulin [1, 7]: 3 h
AUC 0-6 GIP [1, 8]: 591.4 pg·h/mL
AUC 0-6 GLP-1 (active) [1, 8]: 32.6 pmol·h/L
AUC 0-6 Insulin [1, 8]: 99.7 uU*h/ml
AUC 0-6 glucose [1, 8]: 629.1 mg·h/dL
GIP (peak) [1, 8]: 166.7 pg/mL
GLP-1 (active) (peak) [1, 8]: 7.5 pmol/L
Glucose (peak) [1, 8]: 130.3 mg/dL
Insulin (peak) [1, 8]: 33.8 uU/ml
Time (h) to peak, GIP [1, 8]: 4 h
Time (h) to peak, GLP-1 (active) [1, 8]: 0.5 h
Time (h) to peak, glucose [1, 8]: 1.5 h
Time (h) to peak, insulin [1, 8]: 1.5 h
AUC 0-6 GIP [1, 9]: 621.5 pg·h/mL
AUC 0-6 GLP-1 (active) [1, 9]: 24.1 pmol·h/L
AUC 0-6 Insulin [1, 9]: 70.9 uU*h/ml
AUC 0-6 glucose [1, 9]: 611.92 mg·h/dL
GIP (peak) [1, 9]: 161.6 pg/mL
GLP-1 (active) (peak) [1, 9]: 5.5 pmol/L
Glucose (peak) [1, 9]: 116 mg/dL
Insulin (peak) [1, 9]: 20.5 uU/ml
Time (h) to peak, GIP [1, 9]: 5 h
Time (h) to peak, GLP-1 (active) [1, 9]: 2 h
Time (h) to peak, glucose [1, 9]: 3 h
Time (h) to peak, insulin [1, 9]: 3 h
AUC 0-6 GIP [1, 10]: 445.5 pg·h/mL
AUC 0-6 GLP-1 (active) [1, 10]: 39.5 pmol·h/L
AUC 0-6 Insulin [1, 10]: 62.7 uU*h/ml
AUC 0-6 glucose [1, 10]: 606.2 mg·h/dL
GIP (peak) [1, 10]: 117.9 pg/mL
GLP-1 (active) (peak) [1, 10]: 7.9 pmol/L
Glucose (peak) [1, 10]: 106.5 mg/dL
Insulin (peak) [1, 10]: 16.2 uU/ml
Time (h) to peak, GIP [1, 10]: 5 h
Time (h) to peak, GLP-1 (active) [1, 10]: 2 h
Time (h) to peak, glucose [1, 10]: 3 h
Time (h) to peak, insulin [1, 10]: 3 h
Plasma glucose 0 hr ([2]; 0.03 mg/kg oral): 120 ± 9 mg/dL
Plasma glucose 0.5 hr ([2]; 0.03 mg/kg oral): 289 ± 43 mg/dL
Plasma glucose 1 hr ([2]; 0.03 mg/kg oral): 245 ± 28 mg/dL
Plasma glucose 2 hr ([2]; 0.03 mg/kg oral): 129 ± 4 mg/dL
Plasma glucose 3 hr ([2]; 0.03 mg/kg oral): 106 ± 4 mg/dL
ΔAUC (0-1) ([2]; 0.03 mg/kg oral): 116 ± 25 mg·h/dL
ΔAUC (0-1) (% of Control) ([2]; 0.03 mg/kg oral): 71 ± 15 % of Control
Plasma glucose 0 hr ([2]; 0.1 mg/kg oral): 128 ± 13 mg/dL
Plasma glucose 0.5 hr ([2]; 0.1 mg/kg oral): 261 ± 44 mg/dL
Plasma glucose 1 hr ([2]; 0.1 mg/kg oral): 234 ± 37 mg/dL
Plasma glucose 2 hr ([2]; 0.1 mg/kg oral): 136 ± 16 mg/dL
Plasma glucose 3 hr ([2]; 0.1 mg/kg oral): 98 ± 8 mg/dL
ΔAUC (0-1) ([2]; 0.1 mg/kg oral): 93 ± 20 mg·h/dL
ΔAUC (0-1) (% of Control) ([2]; 0.1 mg/kg oral): 57 ± 12 % of Control
PG elevation after glucose administration ([2]; 0.03 and 0.1 mg/kg oral, OMCTT): inhibited PG elevation after glucose administration dose dependently

— patent US11596644B2, “Method for treating post-prandial hypoglycemia” (AVOLYNT, priority 2018, dated 2023)
